Test results: patent publication US20100285139A1, “PHARMACEUTICAL COMPOSITION FOR THE PROPHYLAXIS AND/OR SYMPTOMATIC TREATMENT OF CYSTIC FIBROSIS” (CYCNAD GMBH & CO., KG, priority 2007, published 2010)

Test system: Pseudomonas aeruginosa
Experiment: Susceptibility to infection: Pseudomonas aeruginosa bacterial count in the lung after intranasal infection
Assay type: in vivo, mice
Protocol: The bacteria were cultured for 14 to 14.5 hours on TSA agar plates (Becton Dickinson). Fresh plates were used for at most 2 weeks for this. The bacteria were then transferred to Erlenmeyer flasks in 40 ml of a prewarmed and sterile buffer (TSB, Becton Dickinson). The optical density (OD) or extinction was adjusted to 0.225 (corresponds to 5.5×10^8 CFU/ml) and the bacteria were incubated for 60 minutes at 37° C. with shaking at 125 rpm. The quality of the agar plates and of TSB and the shaking speed were crucial for the obtainment of reproducible results. In this way, it was possible to obtain a Pseudomonas aeruginosa population exactly in the early log phase (the bacteria replicated approximately by 10-fold within an incubation time of 60 minutes). The fact that the bacteria were bacteria of the early log phase was extremely important to obtain reproducible conditions for the subsequent infection with the experimental animals. The bacteria were centrifuged at 2800 rpm (1600×g) in a 50 ml tube. The supernatant was then carefully removed and the bacteria were resuspended in 10 ml of RPMI-1640, supplemented with 10 mM HEPES (pH 7.3). The suspension was transferred to a 15 ml tube and subsequently washed twice. Finally, the bacteria were resuspended in prewarmed HEPES/salt (HS; 132 mM NaCl, 20 mM HEPES (pH 7.4), 5 mM KCl, 1 mM CaCl2, 0.7 mM MgCl2, 0.8 mM MgSO4) and the bacterial optical density was determined. The bacteria were then diluted with prewarmed H/S to a concentration of 10^8 CFU/20 μl . The mice were then infected within the next 10 minutes. For this purpose, a syringe with a volume of 1 ml and a 30 gauge needle was used. The mice were anesthetized in ether for 10 to 15 seconds. Following this, the needle was immediately inserted 2 mm into the noses of the mice and the bacteria were carefully injected. Between the first and the last mouse which were infected, a time interval of at most 10 minutes was allowed to pass to avoid variations in the formation of viable bacterial colonies in this way. […] Subsequently, the number of bacteria in the lung was measured as a measure of the sensitivity of the mice to developing a Pseudomonas aeruginosa infection. […] The bacterial colonies were counted after 15 hours growth at 37° C. as a measure of the number of pulmonary bacteria and thus as a measure of an infection.
Wild-type mice and Cftr-deficient mice were inhaled with a solution of 4 mg/l of amitriptyline, 12.5 mg/l of trimipramine, 9 mg/l of desipramine, 8 mg/l of chlorprothixene, 4.5 mg/l of fluoxetine, 5 mg/l of amlodipine and 35 mg/l of sertraline. […] The lungs were removed from the experimental animals 60 minutes after the inhalation, and the susceptibility to infection of the experimental animals in relation to Pseudomonas aeruginosa was determined. […]

CN(C)CCC=C1c2ccccc2CCc2ccccc21 [amitriptyline]
bacterial count in the lungs (Cftr-deficient mice, treated by inhalation (4 mg/l solution), 2 h after intranasal infection with 1×10^8 CFU P. aeruginosa strain 762): 12300±4075 CFU | bacterial count in the lungs (Cftr-deficient mice, treated by injection solution (250 micrograms i.p.), 2 h after intranasal infection): 11250±2360 CFU | bacterial count in the lungs (wild-type mice, treated by inhalation (4 mg/l solution), 2 h after intranasal infection with 1×10^8 CFU P. aeruginosa strain 762): 3600±2892 CFU | bacterial count in the lungs (wild-type mice, treated by injection solution (250 micrograms i.p.), 2 h after intranasal infection): 2780±1740 CFU
